Key:
Type in all cases: cell-based
[1] = system: human hepatic stellate cells LX-2; assay: inhibitory effect in human liver fibrosis cell model (TGFβ1-stimulated), qPCR of fibrosis gene mRNA; details: for difference from the positive drug hydronidone group: liver fibrosis cells, hydronidone 20µmol; for therapeutic effect on liver fibrosis: overall conclusion from the LX-2 cell model
Procedure: (§1) In embodiments, the method for detecting the inhibitory effect of micropeptide OFMP in a fibrotic cell model by the real-time fluorescence quantitative PCR method comprises: • counting and inoculating human hepatic stellate cells LX-2, human non-small cell lung cancer cell line A549, and human renal proximal tubular cells HK2 to culture plates; • except for the control group, adding 10nmol of recombinant human TGFβ1 stimulating factor to stimulate continuously for 24 h; • extracting and collecting the total RNA of the cell samples with a TRIzol reagent, and then reverse-transcribing the extracted total RNA using a reverse transcription reagent, and performing qPCR reaction using the qPCR premix solution; and • detecting mRNA expression levels of genes Colla1 and α-SMA using a real-time fluorescence quantitative PCR instrument.
(§2) According to the TRIzol reagent manual of Life Invitrogen, the total RNA of the cell samples was extracted and collected. Then, the purity and concentration of the extracted RNA was quantified by a NanoDrop 2000 ultra micro spectrophotometer. The integrity of the extracted RNA was inspected and ensured by agarose gel electrophoresis. A reverse transcription reagent HiScript® III RT SuperMix for qPCR (+ genomic DNA wiper) was used to perform reverse transcription on the extracted total RNA and a qPCR premix liquid ChamQ SYBR qPCR Master Mix was used to perform qPCR reaction.
(§3) After the above components were mixed well, the following procedure proceeded: initial denaturation 95°C 30s, 95°C 10s, 60°C 30s, 50 cycles. After the qPCR reaction was completed, the Cq value of each sample well was collected. The maximum error of the Cq values among the three duplicate wells of each sample should be no more than 0.5 to ensure data accuracy.
(§4) Human hepatic stellate cells LX-2, human non-small cell lung cancer cell line A549, and human renal proximal tubular cells HK2 were cultured in a 37°C 5% CO2 cell incubator until the cell density was above 80%, and the cells were digested and collected by trypsin, and centrifuged. After the supernatant was discarded, the cells were counted by a cell counter, inoculated to six-well cell culture plates, and put into a 37°C 5% CO2 cell incubator to continue the culturing. The culture medium was sucked out after the cells were cultured for 24 h, a 2‰ DMSO solvent was added as a negative control, 20µmol of hydronidone was added as a positive control, 40µmol, 10µmol, 2.5µmol, 625nmol and 156nmol of the synthetic peptide OFMP were added in the equal proportion for other groups as administration groups, 10nmol of recombinant human TGFβ1 stimulating factor was added to other groups except the control groups half an hour later to continuously stimulate for 24 h, and the mRNA expression levels of genes Colla1, TGFβ1 and CTGF in OFMP3178, and the mRNA expression levels of genes Colla1 and α-SMA in OFMP2067 and OFMP1080 were detected.

[2] = system: Human renal proximal tubular cells HK2; assay: inhibitory effect in human renal fibrosis cell model (TGFβ1-stimulated), qPCR of fibrosis gene mRNA; details: for therapeutic effect on renal fibrosis: overall conclusion from the HK2 cell model; for difference from the positive drug hydronidone group: renal fibrosis cells, hydronidone 20µmol
Procedure: as §1, §2, §3
as §4, with “Human” for “Human hepatic stellate cells LX-2, human non-small cell lung cancer cell line A549, and human”

[3] = system: Human non-small cell lung cancer cell line A549; assay: inhibitory effect in human pulmonary fibrosis cell model (TGFβ1-stimulated), qPCR of fibrosis gene mRNA; details: for therapeutic effect on pulmonary fibrosis: overall conclusion from the A549 cell model; for difference from the positive drug Nintedanib group: pulmonary fibrosis cells, Nintedanib 2µmol
Procedure: as §1, §2, §3
as §4, with “Human” for “Human hepatic stellate cells LX-2, human”, “A549 was” for “A549, and human renal proximal tubular cells HK2 were”, “2µmol” for “20µmol”, “Nintedanib” for “hydronidone”

[4] = different concentrations (40µmol to 156nmol), 10nmol TGFβ1, 24 h, compared with the model group

OFMP3178 (MSLSICTLCLLPRRQEYCILKVPGLLFFLITNDLGSSDHSCLPRVKVPFKALLPGEL)
mRNA expression level of gene CTGF in liver fibrosis cells [1, 4]: significantly decreased | mRNA expression level of gene Colla1 in liver fibrosis cells [1, 4]: significantly decreased | difference from the positive drug hydronidone group [1]: a significant difference | therapeutic effect on liver fibrosis [1]: good therapeutic effect | mRNA expression level of gene CTGF in liver fibrosis cells ([1]; treatment condition 40µmol-24h): most significant decrease | mRNA expression level of gene Colla1 in liver fibrosis cells ([1]; treatment condition 40µmol-24h): most significant decrease | mRNA expression level of gene CTGF in renal fibrosis cells [2, 4]: significantly decreased | mRNA expression level of gene Colla1 in renal fibrosis cells [2, 4]: significantly decreased | mRNA expression level of gene TGFβ1 in renal fibrosis cells [2, 4]: significantly decreased | therapeutic effect on renal fibrosis [2]: good therapeutic effect | difference from the positive drug hydronidone group [2]: a significant difference | mRNA expression level of gene CTGF in renal fibrosis cells ([2]; treatment condition 40µmol-24h): most significant decrease | mRNA expression level of gene Colla1 in renal fibrosis cells ([2]; treatment condition 40µmol-24h): most significant decrease | mRNA expression level of gene TGFβ1 in renal fibrosis cells ([2]; treatment condition 40µmol-24h): most significant decrease | mRNA expression level of gene CTGF in pulmonary fibrosis cells [3, 4]: significantly decreased | mRNA expression level of gene Colla1 in pulmonary fibrosis cells [3, 4]: significantly decreased | mRNA expression level of gene TGFβ1 in pulmonary fibrosis cells [3, 4]: significantly decreased | therapeutic effect on pulmonary fibrosis [3]: good therapeutic effect | difference from the positive drug Nintedanib group [3]: a significant difference | mRNA expression level of gene CTGF in pulmonary fibrosis cells ([3]; treatment condition 40µmol-24h): most significant decrease | mRNA expression level of gene Colla1 in pulmonary fibrosis cells ([3]; treatment condition 40µmol-24h): most significant decrease | mRNA expression level of gene TGFβ1 in pulmonary fibrosis cells ([3]; treatment condition 40µmol-24h): most significant decrease

OFMP2067 (MHLDHSDPITRDHMGSVMAQVRQKLFQFLQAEPHNSLGKAARRLSLMLHGLVTPSLP)
mRNA expression level of gene Colla1 in liver fibrosis cells [1, 4]: significantly decreased | mRNA expression level of gene α-SMA in liver fibrosis cells [1, 4]: significantly decreased | difference from the positive drug hydronidone group [1]: a significant difference | therapeutic effect on liver fibrosis [1]: good therapeutic effect | mRNA expression level of gene Colla1 in liver fibrosis cells ([1]; treatment condition 40µmol-24h): most significant decrease | mRNA expression level of gene α-SMA in liver fibrosis cells ([1]; treatment condition 40µmol-24h): most significant decrease | mRNA expression level of gene Colla1 in renal fibrosis cells [2, 4]: significantly decreased | mRNA expression level of gene α-SMA in renal fibrosis cells [2, 4]: significantly decreased | therapeutic effect on renal fibrosis [2]: good therapeutic effect | difference from the positive drug hydronidone group [2]: a significant difference | mRNA expression level of gene Colla1 in renal fibrosis cells ([2]; treatment condition 40µmol-24h): most significant decrease | mRNA expression level of gene α-SMA in renal fibrosis cells ([2]; treatment condition 40µmol-24h): most significant decrease | mRNA expression level of gene Colla1 in pulmonary fibrosis cells [3, 4]: significantly decreased | mRNA expression level of gene α-SMA in pulmonary fibrosis cells [3, 4]: significantly decreased | therapeutic effect on pulmonary fibrosis [3]: good therapeutic effect | difference from the positive drug Nintedanib group [3]: a significant difference | mRNA expression level of gene Colla1 in pulmonary fibrosis cells ([3]; treatment condition 40µmol-24h): most significant decrease | mRNA expression level of gene α-SMA in pulmonary fibrosis cells ([3]; treatment condition 40µmol-24h): most significant decrease

OFMP1080 (MRHRLVSLSVTSCVTPAAGTRRGSAGAVGTNTGRGGPPPHALRASGEQSPAQGVS)
mRNA expression level of gene Colla1 in liver fibrosis cells [1, 4]: significantly decreased | difference from the positive drug hydronidone group [1]: not a significant difference | therapeutic effect on liver fibrosis [1]: good therapeutic effect | mRNA expression level of gene Colla1 in liver fibrosis cells ([1]; treatment condition 40µmol-24h): most significant decrease | mRNA expression level of gene α-SMA in liver fibrosis cells ([1]; treatment condition 40µmol-24h): most significant decrease | mRNA expression level of gene Colla1 in renal fibrosis cells [2, 4]: significantly decreased | therapeutic effect on renal fibrosis [2]: good therapeutic effect | mRNA expression level of gene Colla1 in renal fibrosis cells ([2]; treatment condition 40µmol-24h): most significant decrease | mRNA expression level of gene Colla1 in pulmonary fibrosis cells [3, 4]: significantly decreased | therapeutic effect on pulmonary fibrosis [3]: good therapeutic effect | mRNA expression level of gene Colla1 in pulmonary fibrosis cells ([3]; treatment condition 10µmol-24h): most significant decrease

Source: EP4793281A1, “ORGAN FIBROSIS-RELATED MICROPEPTIDE (OFMP) AND USE THEREOF” (Nanjing Anji Biological Technology Co., Ltd., priority 2023, dated 2025)
